Results reported in US20250011344A1 (priority 2021, published 2025).
Several values for one entry are separate records, joined by “and”; a condition that tells them apart may be missing. Equal values may be shown once. Where a name gives a salt, the structure may show the parent alone.

What was measured:
[1] = PK of psilocin after a single intravenous administration in rats; settings: IV 1 mg/kg nominal dose; for half-life: T½
[2] = PO 2 mg/Kg, FIG. 15, time points other than the one quantified
[3] = psilocin in plasma, individual animal
[4] = psilocin in plasma, individual animal, 1 mg/kg

SMILES: CN(C)CCc1c[nH]c2cccc(O)c12 [Psilocin, psilocin]
- AUC(0-inf) ([1]; male, Sprague-Dawley, rat, plasma, iv, 1 mg/kg, AUCINF_obs, Mean of animals): 1580 ng·h/mL
- AUC(0-t) ([1]; male, Sprague-Dawley, rat, plasma, iv, 1 mg/kg, AUClast, Mean of animals): 1920 ng·h/mL
- Cmax ([1]; male, Sprague-Dawley, rat, plasma, iv, 1 mg/kg, Cmax, Mean of animals): 1300 ng/mL
- half-life ([1]; male, Sprague-Dawley, rat, plasma, iv, 1 mg/kg, Mean of animals): 28.7 min
- half-life ([1]; male, Sprague-Dawley, rat, plasma, iv, 1 mg/kg, individual animal): 24.8 min
- Tlast ([1]; psilocin in plasma, Mean of animals): 24.00 h
- Tlast [1, 3]: 24.00 h
- Tmax [1, 3]: 15 min
- AUCINF_obs [1, 4]: 982 ng·h/mL and 3390 ng·h/mL and 368 ng·h/mL
- AUClast [1, 4]: 1340 ng·h/mL and 3780 ng·h/mL and 646 ng·h/mL
- Cmax [1, 4]: 1110 ng/mL and 2450 ng/mL and 340 ng/mL
- T½ [1, 4]: 21.2 min and 40.1 min

SMILES: CN(C)CCc1c[nH]c2cccc(OP(=O)(OC(C)(C)C)OC(C)(C)C)c12 [Di-tert-butyl [3-[2-(dimethylamino)ethyl]-1H-indol-4-yl] phosphate HCl salt]
- Plasma concentrations of metabolite psilocin at other time points [2]: below limit of quantification (BLQ)
